Source: PMC5617480 (Oncotarget, 2017)
Where two headings read alike, the source gives them in different places.

System: BEL-7404 xenograft
Conditions: for Body weight (start) / Tumor volume (start) / Average tumor weight (mean ± SD g) / Body weight (end) / RBW (%) (end) / Tumor volume (end): BEL-7404 model; for Average tumor weight (mean ± SD g) / Body weight (end) / RBW (%) (end) / Tumor volume (end): day 18
Protocol: In vivo anticancer efficacy of chiral platinum(II) complex 6 was evaluated using BEL-7404 and BEL-7402 xenograft mouse models. BEL-7404 and BEL-7402 cells were injected into nude mice. The mice were randomized into the control group, complex 6-treated group, and the positive control group (n = 6/group). When the volume of tumor was about 80 mm^3, complex 6 was given at a high (8 mg/kg) and low (4 mg/kg) dosage daily for 18 days, 5-FU (20 mg/kg every two days) and Cisplatin (2 mg/kg every two days) were used as a positive control in the BEL-7404 and BEL-7402 xenograft model, respectively.
To evaluate the vivo anticancer efficacy of complex 6, BEL-7404 and BEL-7402 xenograft mouse models (BALB/c nude mice, female for BEL-7404 model, 17–20 g, 6–7 weeks old; male for BEL-7402 model, 18-21 g, 6–7 weeks old) were used. Furthermore, animal used, maximum tolerated dose (MTD) analysis, acute toxicity studies and antitumor activity toward BEL-7404 and BEL-7402 models in vivo of complex 6, was similar to Chen reported.
H21T (3.5 pmol; 5’-G [T AG ] -3’), primer TS (18 pmol; tumor tissue were cut into about 1.5 mm3 small pieces, and […]
5’-[…]-3’), KCl (63 mM), then transplanted into the right flank of nude mice. When EGTA (1 mM), MgCl (1.5 mM), Tween-20 (0.005%), the average tumors reach a volume of about 80 mm3, the […]
primer NT (7.5 pmol; 5’-[…]-3’), mice were randomized into 4 groups (n=6), received the […]
TSNT internal control (0.01 amol; 5’-[…] following treatments: (a) control, received saline solvent; […]
-3’), primer (b) complex 6 at doses of 8.0 mg/kg daily (dissolve in […]
Cxext (22.5 pmol; 5’-[…] saline, iv); (c) complex 6 at doses of 4.0 mg/kg daily; […]
[…]-3’), Taq DNA polymerase (2.5 U), and (d) in BEL-7404 model, 5-fluorouracil (5-Fu) as positive telomerase (100 ng). Complexes or/and distilled water control at 20 mg/kg per two days (dissolve in saline, iv); was added ([…]). PCR was performed in an Eppendorf in BEL-7402 model, cisplatin as positive control at 2 mg/ Master cycler equipped with a hot lid and incubated for kg per two days (dissolve in saline, iv).
30.0 min at 30 °C, followed by 92 °C 30 s, 52 °C 30 s, The tumor volumes and body weight was monitored and 72°C 30 s for 30.0 cycles. After amplification, 8.0 every 3 days, The tumor volumes were estimated by […] loading buffer (5×TBE buffer, 0.2% xylene cyanol, measuring the two dimensions of the tumors using caliper and 0.2% bromophenol blue ) were added to the reaction. and calculated by the formula 1 [1, 6, 14]:
An […] of aliquot was loaded onto a nondenaturing V = (length × width2)/2(1) acrylamide gel (19:1, 16%) in 1×TBE buffer and resolved at 200.0 V for 1.0 h. Gels were fixed and then stained with On day 18, the mice were sacrificed, and tumor AgNO3 [8–11]. tissue were dissected out and weighted, tumor growth inhibition rate calculated using formulas 2 and 3 [1, 6,
In order to verify whether complexes 4–6 can TGI (%) = (ΔVc − ΔVt)/ΔVc×100%(2) directly regulate c-myc promoter (Pu27) and the IR(%) = (Wc − Wt)/Wc×100%(3) expression of hTRET in BEL-7404 cells, consequently Where ΔVt = tumor volumefinal −tumor volumeinitial inhibiting the telomerase function, we constructed EGFP for compound treated group, ΔVc=tumor volumefinal − and c-myc gene vectors according to those illustrated tumor volumeinitial for vehicle control group; Wt and Wc in Chalfie, Chen and He previous work. The detailed mean the average tumor weight of complex-treated and procedures for the construct of gene (c-myc and EGFP vehicle controlled group respectively. genes) vectors, and the method of transfection assays REFERENCES have been reported by Chalfie, Chen and He [1, 6, 9, 12,

## cis-[PtCl2(S-(–)-FOA)] [complex 6]
BEL-7404 and BEL-7402 models, 4 and 8 mg/kg daily
  discomfort / side effects in diet intake or overall body weight: did not display any discomfort or discernible side effects
6 4.0 mg/kg daily iv
  Body weight (start): 19.5 ± 1.6 g
  Tumor volume (start): 75.81±19.95 mm3
  Average tumor weight (mean ± SD g): 0.67 ± 0.08 g
  Body weight (end): 17.2 ± 1.7 g
  RBW (%) (end): 87.9±4.2%
  Tumor volume (end): 782.94±73.43 mm3
6 8.0 mg/kg daily iv
  Body weight (start): 19.5 ± 1.2 g
  Tumor volume (start): 73.70±16.66 mm3
  Average tumor weight (mean ± SD g): 0.51 ± 0.19 g
  Body weight (end): 17.4 ± 0.8 g
  RBW (%) (end): 89.2±2.5%
  Tumor volume (end): 659.96±253.88 mm3
